The values below come from patent EP0325048A1, “Imidazo- and pyrimido-quinoline, naphthyridine and pyridopyrazine compounds” (SCHERING CORPORATION, priority 1987, dated 1989).

Read-outs that look alike come from different tables or passages of the source.

Experiment [1] deals with reverse passive Arthus reaction in the pleural cavity of rats. In words: reverse passive Arthus reaction in the pleural cavity of rats (pleurisy). The experiment is classed as in vivo, Male Lewis rats. As to conditions: Rattus norvegicus, po; for inhibition in vivo at 3.125 mg/kg: 3.125 mg/kg p.o. (Table 4); for inhibition in vivo at 6.25 mg/kg: 6.25 mg/kg p.o. (Table 4); for inhibition in vivo at 12.5 mg/kg: 12.5 mg/kg p.o. (Table 4); for inhibition in vivo at 50 mg/kg: 50 mg/kg p.o. (Table 4); for inhibition in vivo at 1 mg/kg: 1 mg/kg p.o.; for inhibition in vivo at 3 mg/kg: 3 mg/kg p.o.; for inhibition in vivo at 9 mg/kg: 9 mg/kg p.o. The method, then:
Another procedure for testing for acute antiinflammatory activity measures the reverse passive Arthus reaction in the pleural cavity of rats.
Male Lewis rats weighing 180-220 grams were obtained from Charles River Breeding Laboratories, Wilmington, MA and permitted food and water ad libitum. Rooms housing the animals were temperature controlled with a 12 hour light and dark cycle.
Groups of five rats were dosed with drug 30 minutes prior to sensitization with BSA (1 mg/0.2 ml saline). Thirty minutes later the animals were challenged with the IgG fraction of a rabbit anti-bovine serum albumi antibodies (0.1 mg antibody protein per 0.2 ml saline Cooper Biomedical, Malvern, PA) in the pleural cavity. Four hours after challenge, the rats were sacrificed and the exudate harvested from the pleural cavity. The volume of the exudate was measured and the total number of cells determined with a Coulter Counter. [formula]
The results measured as percent inhibition of the infiltration of polymorphonuclear leucocytes (PMNs) and of edena are set forth below in Table 3.

In experiment [2] the test system is anaphylactic bronchospasm in sensitized guinea pigs. In words: anaphylactic bronchospasm in sensitized guinea pigs (modified Konzett-Rossler), antigen-induced SRS-A mediated bronchoconstriction. Format: in vivo. To be noted: for % Inhibition of Broncho-constriction: 2 hours before antigen challenge, inhibition of increase in intratracheal pressure; for % Inhibition of Bronchoconstriction: comparison compound (Table 2). Here is the method: The anti-allergy method of this invention is identified by tests which measure a compound's inhibition of anaphylactic bronchospasm in sensitized guinea pigs having antigen-induced SRS-A mediated bronchoconstriction. Allergic bronchospasm was measured in actively sensitized guinea pigs by a modification of the procedure of Konzett and Rossler, Arch. Exptl. Pathol. […] Male Hartley guinea pigs were sensitized with 5 mg ovalbumin injected ip and 5 mg injected sc in 1 ml saline on day 1 and 5mg ovalbumin injected ip on day 4. The sensitized animals were used 3-4 weeks later. To measure anaphylactic bronchospasm, sensitized guinea pigs were fasted overnight and the following morning were anesthetized with 0.9 ml/kg ip of dialurethane. The trachea and jugular vein were cannulated and the animals were ventilated by a Harvard rodent respirator. A side arm to the tracheal cannula was connected to a Harvard pressure transducer to obtain a continuous measure of intratracheal pressure. An increase in intratracheal pressure was taken as a measure of bronchoconstriction. Each guinea pig was injected iv with 1mg/kg propranolol, 5 mg/kg indomethacin and 2 mg/kg mepyramine given together in a volume of 1 ml/kg. Fifteen minutes later, the animals were challenged with antigen (0.5 per cent ovalbumin) delivered as an aerosol generated from a DeVilbiss Model 65 ultrasonic nebulizer and delivered through the tracheal cannula for 30 seconds. Bronchoconstriction was measured as the peak increase in intratracheal pressure occurring within 15 minutes after antigen challenge.

Experiment [3] concerns Reversed Passive Arthus Reaction (RPAR)-PAW. Kind of experiment: Reversed Passive Arthus Reaction (RPAR)-PAW technique. Format: in vivo, male Lewis rats. To be noted: 25 mg/kg (p.o.); paw volume at 2 hours post-challenge. The method, then: The compounds of this invention are also useful for the treatment of inflammation; thus, they are useful for the treatment of: arthritis, bursitis, tendonitis, gout and other inflammatory conditions. […] The potency of the compounds is determined using indomethacin as the standard. On the basis of the test results, an oral dosage range of about 5 milligrams per kilogram of body weight per day to about 50 milligrams per kilogram of body weight per day in divided doses taken at about 4 hour intervals is recommended, again with any of the conventional modes of administration for treatment of inflammation being suitable.
Male Lewis inbred albino rats weighing 180-220 grams obtained from Charles River Breeding Laboratories are used in these experiments. The rats are housed 3 animals/cage and food and water are allowed ad libitum. The animals are numbered 1-3 in each cage and color marked for identification purposes.
All reagents and drugs are prepared just prior to the study. […]
Groups of animals (6/group) are dosed with drug in MC by gavage one hour prior to sensitization with BSA. […] The volume of mercury displaced is converted to weight and recorded. […] Paw volumes are also recorded with a plethysmograph during the development of the inflammation at 2 hours post-challenge.

Where [4] appears, read: 4 h, read-out: Pleurisy (% Inhibition) Edema.
The mark [5] stands for this setting: 4 h, read-out: Pleurisy (% Inhibition) PMNs.
The mark [6] stands for this setting: 25 mg/kg p.o., exudate 4 hours after challenge, read-out: Pleurisy (% Inhibition) Edema.
Setting [7] is: 25 mg/kg p.o., exudate 4 hours after challenge, read-out: Pleurisy (% Inhibition) PMNs.

Regarding `C[C@]12C=CC(=O)C=C1CC[C@@H]1[C@@H]2C(=O)C[C@@]2(C)[C@H]1CC[C@]2(O)C(=O)CO` [Prednisone, prednisone, reference compound], in experiment [1] (setting [4]), the inhibition in vivo at 3.125 mg/kg is 2%, the inhibition in vivo at 6.25 mg/kg was 17%, the inhibition in vivo at 12.5 mg/kg was found to be 27% and the inhibition in vivo at 50 mg/kg worked out at 58%. For the same compound, in experiment [1] (setting [5]), the inhibition in vivo at 3.125 mg/kg came out at 7%, the inhibition in vivo at 6.25 mg/kg worked out at 16%, the inhibition in vivo at 12.5 mg/kg was 20% and the inhibition in vivo at 50 mg/kg stood at 42%. For the same compound, in experiment [1] (4 h, 25 mg/kg p.o. (Table 4), read-out: Pleurisy (% Inhibition) Edema), the inhibition in vivo at 25 mg/kg worked out at 44%. The inhibition in vivo at 25 mg/kg in experiment [1] (4 h, 25 mg/kg p.o. (Table 4), read-out: Pleurisy (% Inhibition) PMNs) stood at 25%.

In the case of `CN1CCn2c1c(-c1ccccc1)c1ncccc1c2=O` [R^3=CH3, R^4=phenyl, n=2, 2,3-dihydro-1-methyl-10-phenylimidazo[1,2-g][1,6]naphthyridin-5(1H)-one], the inhibition in vivo at 25 mg/kg in experiment [1] (setting [6]) was 56%; in experiment [1] (setting [7]) it was 69%.

In the case of `O=c1c2cccnc2c(-c2cccc(Cl)c2)c2n1CCCN2` [R^3=H, R^4=3-chloro phenyl, n=3, 11-(3-chlorophenyl)-1,2,3,4-tetrahydro-6H-pyrimido[1,2-g][1,6]naphthyridin-6-one], the inhibition in vivo at 25 mg/kg in experiment [1] (setting [6]) was 76%; in experiment [1] (setting [7]), 82%. In experiment [2] (5 mg/kg p.o.), the “% Inhibition of Broncho-constriction” value came out at 54%.

With `O=c1c2cccnc2c(-c2cccc(Cl)c2)c2n1CCN2` [R^3=H, R^4=3-chloro-phenyl, n=2, 10-(3-chlorophenyl)-2,3-dihydroimidazo[1,2-g][1,6]naphthyridin-5(1H)-one], in experiment [2] (5 mg/kg p.o.), the “% Inhibition of Broncho-constriction” value was 43%.

`COc1cccc(-c2c3n(c(=O)c4cccnc24)CCN3)c1` [R^3=H, R^4=3-methoxy-phenyl, n=2, 2,3-dihydro-10-(3-methoxyphenyl)imidazo-[1,2-g][1,6]naphthyridin-5(1H)-one]: the inhibition in vivo at 25 mg/kg in experiment [1] (setting [6]) came to 69%; in experiment [1] (setting [7]), 79%. Also, the “% Inhibition of Broncho-constriction” value in experiment [2] (5 mg/kg p.o.) is reported as 61%.

Take `O=c1c2cccnc2c(-c2ccc(Cl)cc2)c2n1CCN2` [R^3=H, R^4=4-chloro-phenyl, n=2, 10-(4-chlorophenyl)-2,3-dihydro-imidazo[1,2-g][1,6]naphthyridin-5(1H)-one]: the inhibition in vivo at 25 mg/kg in experiment [1] (setting [6]) worked out at 92%; in experiment [1] (setting [7]) it was 95%. The “% Inhibition of Broncho-constriction” value in experiment [2] (5 mg/kg p.o.) is reported as 11%.

As for `COc1ccc(-c2c3n(c(=O)c4cccnc24)CCN3)cc1` [R^3=H, R^4=4-methoxy-phenyl, n=2, 2,3-dihydro-10-(4-methoxyphenyl)imidazo-[1,2-g][1,6]naphthyridin-5(1H)-one], the inhibition in vivo at 25 mg/kg in experiment [1] (setting [6]) is 42%; in experiment [1] (setting [7]) it was 49%. The “% Inhibition of Broncho-constriction” value in experiment [2] (10 mg/kg p.o.) worked out at 8%.

What is called inhibition is the percentage by which the read-out fell short of the control. With `Cc1ccc(-c2c3n(c(=O)c4cccnc24)CCN3)cc1` [R^3=H, R^4=4-methyl phenyl, n=2, 2,3-dihydro-10(4-methylphenyl)imidazo-[1,2-g][1,6]naphthyridin-5(1H)-one], the inhibition in vivo at 25 mg/kg in experiment [1] (setting [6]) amounted to 42%; in experiment [1] (setting [7]), 53%. This compound showed an inhibition in experiment [3] of 42%. Also, the “% Inhibition of Broncho-constriction” value in experiment [2] (5 mg/kg p.o.) is on record as 1%.

Take `O=c1c2cccnc2c(-c2cccc3ccccc23)c2n1CCN2` [R^3=H, R^4=naphthyl, n=2, 2,3-dihydro-10-(1-naphthalenyl)imidazo-[1,2-g][1,6]naphthyridin-5(1H)-one]: the results for the inhibition in vivo at 25 mg/kg in experiment [1] (setting [6]) and in experiment [1] (setting [7]) were 28% and 50%, respectively.

In the case of `O=c1c2cccnc2c(-c2ccccc2)c2n1CCN2` [R^3=H, R^4=phenyl, n=2, 2,3-dihydro-10-phenylimidazo[1,2-g][1,6]-naphthyridin-5(1H)-one], in experiment [1] (setting [4]), the inhibition in vivo at 1 mg/kg is 9%, the inhibition in vivo at 3 mg/kg was 25% and the inhibition in vivo at 9 mg/kg was determined as 34%. In addition, in experiment [1] (setting [5]), the inhibition in vivo at 1 mg/kg stood at 3%, the inhibition in vivo at 3 mg/kg came to 28% and the inhibition in vivo at 9 mg/kg worked out at 54%. In addition, the inhibition in vivo at 25 mg/kg in experiment [1] (setting [6]) is 55%. In experiment [1] (setting [7]), the inhibition in vivo at 25 mg/kg stood at 90%. Moreover, the inhibition in experiment [3] was 92%. Moreover, the “% Inhibition of Broncho-constriction” value in experiment [2] (10 mg/kg p.o.) was determined as 16%.

Turning to `Cn1c(=O)c2[nH]cnc2n(C)c1=O` [aminophylline, reference compound], the “% Inhibition of Bronchoconstriction” value in experiment [2] (18 mg/kg p.o.) is 21%; in experiment [2] (53 mg/kg p.o.) it was 58%.

For `C[C@@H]1C[C@H]2[C@@H]3CCC4=CC(=O)C=C[C@]4(C)[C@@]3(F)[C@@H](O)C[C@]2(C)[C@@]1(O)C(=O)CO` [dexamethasone, reference compound], the “% Inhibition of Bronchoconstriction” value in experiment [2] (3 mg/kg p.o.) is 38%; in experiment [2] (10 mg/kg p.o.), 46%.

With `CC(C)(C)c1ccc(C(O)CCCN2CCC(C(O)(c3ccccc3)c3ccccc3)CC2)cc1` (stereo not shown) [terfenadine, reference compound], in experiment [2] (30 mg/kg p.o.), the “% Inhibition of Bronchoconstriction” value turned out to be 5%.
